Data on 45 molecules can be found in the Deep4Chem optical property database.

This data set can be described thus: solvent given as SMILES.

With `Brc1cc2nc3cc4c5c(cccc5c3nc2cc1Br)C(c1ccccc1)=C(c1ccccc1)O4`, where the note is “in ClCCl”, the absorption maximum is 518 nm.
`N#CC(C#N)=C(/C=C/c1ccc(N(c2ccccc2)c2ccccc2)cc1)c1ccc2c3c(cccc13)CC2` gave an absorption maximum (in C1CCOC1) of 485 nm; an absorption maximum (in CC#N) of 486 nm; an absorption maximum (in CC(C)=O) of 485 nm; an absorption maximum (in CCOC(C)=O) of 482 nm; an absorption maximum (in CN(C)C=O) of 493 nm; an absorption maximum (in CO) of 490 nm. For the same molecule, the absorption maximum reads like this: (in Cc1ccccc1) 493 nm; (in ClC(Cl)Cl) 502 nm.
`COc1cc2c(c(OC)c1OC)c1ccc3cccc4c5cccc6oc(=O)c2c(c65)c1c34`: the absorption maximum (in C1CCOC1) is recorded as 417 nm.
For `CN(C)CCN(Cc1c2ccccc2cc2ccccc12)c1ccc([N+](=O)[O-])cc1[N+](=O)[O-]`, the absorption maximum (in C1CCCCC1) came to 372 nm; the absorption maximum (in C1CCOC1) came to 394 nm; the absorption maximum (in CC#N) was 392 nm; the absorption maximum (in CC(C)=O) was determined as 392 nm; the absorption maximum (in CCO) came out at 394 nm; the absorption maximum (in CN(C)C=O) is listed as 395 nm. In addition, the absorption maximum reads like this: (in CO) 391 nm; (in CS(C)=O) 397 nm; (in ClC(Cl)Cl) 393 nm; (in ClCCl) 394 nm.
In turn, `c1ccc(-c2nc(-c3ccc(N4c5ccccc5C(c5ccccc5)(c5ccccc5)c5ccccc54)cc3)cc(-c3ccccn3)n2)cc1` came in with an absorption maximum (in Cc1ccccc1) of 371.33 nm.
The molecule `CCOC(=O)c1cc(C(=O)OCC)c2ccc(C)cc2n1` showed an absorption maximum (in CCO) of 321 nm.
Consider `N#Cc1nn(-c2cc(F)cc(F)c2)nc1N1CCCC1`, for which the absorption maximum (in CC#N) stood at 350 nm.
Regarding `CC/C=C/C=C/C=C/C=C/CCCCCCCC(=O)O`, the absorption maximum is recorded as 317.3 nm (in C1COCCO1); 313.5 nm (in CCCCCC); 315.3 nm (in CCCCCCCCCC); 315.2 nm (in CCCCO); 313.8 nm (in CCO); 313.5 nm (in CCOCC). Also, the absorption maximum (in CO) came to 313 nm, the absorption maximum (in ClC(Cl)Cl) worked out at 319.6 nm and the absorption maximum (in c1ccccc1) is given as 320 nm.
`CCCCCC#Cc1cc(C#CCCCCC)c2ccc3c(C(=O)c4ccccc4)cc(C#CCCCCC)c4ccc1c2c43` showed an absorption maximum (in ClCCl) of 416 nm.
In turn, `F[B-]1(F)n2c(ccc2-c2nc3ccccc3s2)C(c2ccccc2)=C2C=CC(c3nc4ccccc4s3)=[N+]21` had an absorption maximum (in ClC(Cl)Cl) of 623 nm.
As for `C[n+]1ccc(/C=C/c2ccc(N(c3ccccc3)c3ccc(/C=C/c4cc[n+](C)cn4)cc3)cc2)nc1`, the absorption maximum by setting is: (in CS(C)=O) 500 nm; (in O) 525 nm; (in OCC(O)CO) 560 nm.
`O=C(O)c1ccc(-c2cnc(-c3ccc(N(c4ccccc4)c4ccccc4)cc3)s2)cc1`: the absorption maximum (in CO) came to 387 nm.
With `CC(C)(C)c1ccc(-c2ccc(-c3ccc(N(c4ccccc4)c4ccccc4)cc3)c3nsnc23)cc1`, the absorption maximum (in ClCCl) was found to be 436 nm.
Take `CC1=CC(/C=C/c2ccc(OCCCN=[N+]=[N-])cc2)=[N+]2C1=C(c1ccc(N(C)C)cc1)c1c(C)cc(C)n1[B-]2(F)F`: where the note is “in CO”, the absorption maximum came out at 568 nm.
Regarding `Cc1ccc(-c2cnc3ccc4ccccc4n23)cc1`, the absorption maximum (in ClCCl) stood at 324 nm.
For `CCCCCOc1cc2oc(=O)c3c4ccc(O)cc4c4ccc5cccc6c(c1)c2c3c4c56`, for the setting “in C1CCOC1”, the absorption maximum is reported as 443 nm.
Consider `COc1cccc(OC)c1-c1c2ccc(=[N+]3CCN(C(=O)OC(C)(C)C)CC3)cc-2oc2cc(N3CCN(C(=O)OC(C)(C)C)CC3)ccc12`, for which the absorption maximum (in ClCCl) came out at 555 nm.
Take `CCC1=C(C)C2=Cc3c4ccccc4c4n3[B-](c3cc[n+](C)cc3)(Oc3ccccc3-4)[N+]2=C1C=Cc1ccc(OC)cc1` (stereo not given): the absorption maximum runs as follows: (in CO) 695 nm; (in CS(C)=O) 703 nm.
In turn, `CCN1/C(=C/C=C/C2=[N+](C)c3ccccc3C2(C)C)C(C)(C)c2ccccc21` returned an absorption maximum (in CS(C)=O) of 552 nm.
In turn, `CCOC(=O)c1cc(C(=O)OCC)c2c(C)ccc(O)c2n1` returned an absorption maximum (in CCO) of 369 nm.
As for `COc1ccc(C2=C(Br)C(c3ccccc3)=[N+]3C2=Nc2c(-c4ccc(OC)cc4)c(Br)c(-c4ccccc4)n2[B-]3(F)F)cc1`, under “in Cc1ccccc1”, the absorption maximum is 654 nm.
Regarding `CCCCn1c2ccccc2c2ccc3c4cc(-c5ccc(C(F)(F)F)cc5)ccc4n(CCCC)c3c21`, the absorption maximum (in ClC(Cl)Cl) came to 326 nm.
With `CCN(CC)c1ccc([N+]2=Cc3ccc4c5c(ccc4c3O[B-]2(c2ccccc2)c2ccccc2)C=[N+](c2ccc([N+](=O)[O-])cc2)[B-](c2ccccc2)(c2ccccc2)O5)cc1`, the absorption maximum by setting is: (in C1CCOC1) 547 nm; (in CC#N) 539 nm; (in CC(C)=O) 541 nm; (in Cc1ccccc1) 555 nm; (in ClCCl) 559 nm.
As for `CCCCCCn1c(=O)c2c3nc4ccccc4nc3c3c(=O)n(CCCCCC)c(=O)c3c2c1=O`, for the setting “in ClCCl”, the absorption maximum is 404 nm.
On to `COC(=O)c1c(C(=O)OC)c2ccc(-c3ccccc3)nn2c1C`, for which the absorption maximum (in C1CCCCC1) is 397.6 nm.
For the molecule `CCn1c2ccccc2c2cc(-c3cc(-c4ccc5c(c4)c4ccccc4n5CC)nc(-c4ccccc4)n3)ccc21`, the absorption maximum is 364 nm (in C1CCOC1); 360 nm (in CCOC(C)=O); 367 nm (in CN(C)C=O); 363 nm (in Cc1ccccc1); 363 nm (in ClCCl).
`CC1=[N+]2C(=C(c3c4ccccc4c(C)c4ccccc34)c3ccc(C)n3[B-]2(F)F)C=C1`: the absorption maximum runs as follows: (in CC#N) 514 nm; (in CCCCCC) 515 nm; (in CCO) 515 nm; (in CN(C)C=O) 517 nm; (in Cc1ccccc1) 519 nm; (in ClCCl) 517 nm.
`C(#Cc1cccc2cc(-c3ccccc3)c3cc(-c4cc[b-]5c(c4)c(-c4ccccc4)cc4cccc(C#Cc6ccccc6)[n+]54)cc[b-]3[n+]12)c1ccccc1` had an absorption maximum (in C1CCCCC1) of 546 nm.
In the case of `CCOC(=O)c1ccccc1-c1c2ccc(=[N+](CC)CC)cc-2oc2c1c(=O)oc1cc(N(CC)CC)ccc12`, the absorption maximum came to 595 nm (in CCO), 601 nm (in ClC(Cl)Cl) and 596 nm (in O).
`Cc1cc2ccccc2c2c1c1ccccc1n2C` had an absorption maximum (in ClCCl) of 300 nm.
As for `F[B-]1(F)OC(c2ccccc2)=Cc2cc(Cl)nc[n+]21`, the absorption maximum (in C1CCOC1) is recorded as 374 nm; the absorption maximum (in CC#N) is listed as 371 nm; the absorption maximum (in CCCCCC) is listed as 373 nm; the absorption maximum (in Cc1ccccc1) is 377 nm; the absorption maximum (in ClC(Cl)Cl) was determined as 376 nm; the absorption maximum (in ClCCl) was 375 nm.
Turning to `Cc1cc(C)c(C2=C3C=C(/C=C/C(=O)OC(C)(C)C)C=[N+]3[B-](F)(F)n3cccc32)c(C)c1`, the absorption maximum (in ClCCl) is recorded as 538 nm.
The same measure, in the same setting: the result for `Cc1cc2c3ccccc3[nH]c2c2[nH]c3ccccc3c12` reads 323 nm.
For the molecule `O=S1(=O)C2=C(c3ccc(-c4ccc(N(c5ccccc5)c5ccccc5)cc4)cc31)C1(C3=C(c4ccccc41)S(=O)(=O)c1cc(-c4ccc(N(c5ccccc5)c5ccccc5)cc4)ccc13)c1ccccc12`, the absorption maximum (in C1CCOC1) amounted to 431 nm; the absorption maximum (in CC#N) worked out at 430 nm; the absorption maximum (in CCCCCC) is 424 nm; the absorption maximum (in Cc1ccccc1) is given as 438 nm; the absorption maximum (in ClCCl) came out at 438 nm.
Turning to `CN(C)c1ccc(-c2nc(C#N)c(C#N)n2C)cc1`, the absorption maximum (in C1CCCCC1) was found to be 323 nm, the absorption maximum (in CC#N) is 313 nm, the absorption maximum (in CO) came to 309 nm and the absorption maximum (in ClC(Cl)Cl) was 326 nm.
Regarding `O=c1oc2ccccc2c2c1c(=O)oc1c3ccccc3cc(O)c12`, the absorption maximum (in CS(C)=O) was found to be 480 nm and the absorption maximum (in ClCCl) amounted to 447 nm.
On to `CN1/C(=C/C=C(/C=C/c2sc3ccccc3[n+]2C)c2ccc(C(F)(F)F)cc2)Sc2ccccc21`, for which the absorption maximum by setting is: (in CCO) 646 nm; (in CO) 643 nm; (in CS(C)=O) 652 nm; (in O) 639 nm.
In turn, `CCN1c2ccc(C3=CC(c4ccccc4)=[O+][B-](F)(F)O3)cc2Sc2cc(C3=CC(c4ccccc4)=[O+][B-](F)(F)O3)ccc21` yielded an absorption maximum (in ClCCl) of 525 nm.
`c1ccc(N2c3ccc4ccccc4c3-c3c4ccccc4nc[n+]3[B-]2(c2ccccc2)c2ccccc2)cc1`: the absorption maximum came out at 542 nm (in C1CCC2CCCCC2C1); 539 nm (in C1CCCCC1); 535 nm (in C1CCOC1); 527 nm (in CC#N); 530 nm (in CC(C)=O); 537 nm (in CCCCCC). Further, the absorption maximum reads like this: (in CCOC(C)=O) 532 nm; (in CN(C)C=O) 532 nm; (in Cc1ccccc1) 539 nm; (in ClC(Cl)Cl) 541 nm.
With `CCCCCCc1cc2c(s1)-c1cc3c(cc1NB2c1ccccc1)-c1sc(CCCCCC)cc1B(c1ccccc1)N3`, the absorption maximum (in ClCCl) amounted to 412 nm.
As for `CC[N+]1(CC)CN2C(C)=CC(C)=C(C(=O)[O-])C2=N1`, the absorption maximum was 361 nm (in CN(C)C=O) and 338 nm (in O).
Turning to `C(#Cc1ccccc1)C(C#Cc1ccccc1)=Cc1ccc2cc(C=C(C#Cc3ccccc3)C#Cc3ccccc3)ccc2c1`, the absorption maximum (in ClC(Cl)Cl) is 418 nm.
With `COC(=O)c1cc(=O)n(C)c2cc(-c3cccc(OC)c3)sc12`, the absorption maximum is 394 nm (in CC#N) and 394 nm (in ClCCl).
`COc1ccc(C2=[N+]3C(=Nc4c5c6ccccc6c6ccc(C(C)(C)C)cc6c5c(-c5ccc(OC)cc5)n4[B-]3(F)F)c3c2c2cc(C(C)(C)C)ccc2c2ccccc32)cc1` showed an absorption maximum (in Cc1ccccc1) of 716 nm.
As for `CN(C)c1ccc2c(-c3ccc(N)cc3C(=O)[O-])c3ccc(=[N+](C)C)cc-3oc2c1`, the absorption maximum runs as follows: (in CCO) 533 nm; (in O) 544 nm.
